pEC50: −log10 of the molar value. Where a name gives a salt, the structure may show the parent alone.
Key:
[1] = clinically tested in transplant and multiple sclerosis; cited from earlier work
blood lymphocytes = details: phosphorylated in the living body, acts as S1P receptor agonist; cited from earlier work
[2] = system: production of cytokines such as IL-2; details: in vitro; cited from earlier work
human S1P1 (EDG-1) = biological target: T1, human S1P1 (EDG-1) (Homo sapiens, UniProt P21453); test: Intracellular calcium flux assay (agonist activity against S1P1 (EDG-1) receptor); type: cell-based; details: CHO cells expressing Gqi5 and human S1P1 (EDG-1), intracellular calcium change
T1 construct: expressed in transfected cells; host or cells: CHO-K1 cells stably expressing HA-Gqi5
Source text: The HA-Gqi5 expression plasmid, which had been produced in (2) above, was integrated into CHO-K1 cells by use of a Fugene 6 reagent (product of Roche Diagnostics K.K.), and cells of interest were selected by use of hygromycin. A CHO cell expressing HA-Gqi5 was selected through western blotting employing an anti-HA antibody, and the selected cells were cloned twice.
By use of a human S1P1 (EDG-1) cDNA clone (open biosystems, cDNA collection #4071217) as a template, human S1P1 (EDG-1) DNA was produced through PCR. This PCR product was integrated into pUC118. By means of a site-directed mutagenesis kit (product of STRATAGENE), a plasmid into which DNA having a target sequence (The Journal of Biological Chemistry Vol. 265, No. 16, 9308-9313, 1990) had been integrated was produced.
A human S1P1 (EDG-1) gene (The Journal of Biological Chemistry Vol. 265, No. 16, 9308-9313, 1990) integrated into pUC118 was digested by use of restriction enzymes, and the cut fragment was purified. The fragment was ligated with an expression plasmid pcDNA3.1/mycHisA (product of Invitrogen). The ligation mixture was integrated into E. Coli DH5α, and a positive clone was selected, whereby a S1P1 (EDG-1) expression plasmid was produced.
A S1P1 (EDG-1) expression plasmid was integrated into the CHO cells expressing HA-Gqi5, which had been produced in (3) above, by use of a Fugene 6 reagent (product of Roche Diagnostics K.K.). […] The selected cells were cloned twice.
CHO cells expressing Gqi5 protein, to which human S1P1 (EDG-1) had been introduced and which had been produced in (6) above, were seeded on a 96-well black plate with a transparent bottom surface (2.5×10^4 cell/well) and cultured overnight. The culture was washed once with a serum-free medium, and an assay buffer (calcium assay kit, product of Molecular Devices, 100 μL) containing 2.5 mM probenicid and 0.25% fatty acid-free BSA was added to the washed cells. The mixture was allowed to react at 37° C. for one hour under […] CO2. Separately, each test compound was diluted so as to attain a concentration five times the final test concentration. The diluted liquid (25 μL) was added to each well, and change in intracellular calcium concentration was measured by means of a FLEXstation II (product of Molecular Devices). The change was determined as the difference between the minimum intracellular calcium level and the peak (maximum) value thereof. A sigmoid curve was obtained from the measurements, and an EC50 value was calculated from the curve so as to evaluate agonist activity against an S1P1 (EDG-1) receptor.

[3] = system: lymphocytes in peripheral blood; test: Decrease in peripheral blood lymphocyte count of mice after administration of each compound; type: in vivo; details: four hours after administration, peripheral blood lymphocyte count vs solvent group; for T/C(%) (3 mg/kg): 3 mg/kg peroral; for T/C(%) (10 mg/kg): 10 mg/kg peroral
Description: 2. In Vivo Evaluation of Test Substances (Decrease in Peripheral Blood Lymphocyte Count of Mice after Administration of Each Compound):
There has already been reported that lymphocytes in peripheral blood of mice decrease after administration of an S1P receptor agonist [SCIENCE, 296, 346-349 (2002)]. According to the evaluation method disclosed in the document, test compounds were evaluated.
Four hours after peroral administration, blood (0.5 mL) was collected from each mouse through the posterior vena cava under anesthesia with ether by use of EDTA as an anti-coagulant. The number of lymphocytes in peripheral blood was determined by means of a general hematological tester ADVIA 120 (Bayer Medical). The pharmacological action of each test drug was evaluated as T/C (%) ratio, which is a ratio of average peripheral blood lymphocyte count of a test drug-administered group to that of the solvent-administered group (control group).
(§1) T/C(%)=(average peripheral blood lymphocyte count of a test drug-administered group)/(average peripheral blood lymphocyte count of the solvent-administered group)×100

[4] = system: lymphocytes in peripheral blood; test: Decrease in peripheral blood lymphocyte count of rats after administration of each compound; type: in vivo; details: rats (female Lewis), four hours after administration, peripheral blood lymphocyte count vs solvent group; for T/C(%) (3 mg/kg): 3 mg/kg peroral; for T/C(%) (10 mg/kg): 10 mg/kg peroral
Description: 3. In Vivo Evaluation of Test Substances (Decrease in Peripheral Blood Lymphocyte Count of Rats after Administration of Each Compound):
The effect of administration of an S1P receptor agonist on decrease in peripheral blood lymphocyte counts of rats (female Lewis) was evaluated.
Four hours after peroral administration, blood (0.5 mL) was collected from each rat through the cervical vein under anesthesia with ether by use of EDTA as an anti-coagulant. The number of lymphocytes in peripheral blood and blood cell fractions were determined by means of a general hematological tester ADVIA 120 (Bayer Medical). The action of each test drug on reducing peripheral blood lymphocyte count was evaluated as T/C (%) ratio at the time of blood collection, which is a ratio of average peripheral blood lymphocyte count of a test drug-administered group to that of the solvent-administered group (control group).
as §1

T1 sequence (P21453 whole entry): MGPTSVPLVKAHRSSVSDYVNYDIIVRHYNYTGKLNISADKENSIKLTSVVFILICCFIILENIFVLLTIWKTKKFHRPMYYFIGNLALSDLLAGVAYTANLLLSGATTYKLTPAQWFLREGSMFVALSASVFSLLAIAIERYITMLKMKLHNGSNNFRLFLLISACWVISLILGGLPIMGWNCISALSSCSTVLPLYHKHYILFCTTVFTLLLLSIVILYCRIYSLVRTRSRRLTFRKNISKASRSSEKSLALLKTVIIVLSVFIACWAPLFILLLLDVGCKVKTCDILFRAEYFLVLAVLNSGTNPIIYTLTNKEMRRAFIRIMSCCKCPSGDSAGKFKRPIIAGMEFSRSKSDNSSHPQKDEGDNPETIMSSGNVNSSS

| Structure (SMILES) | pEC50 (human S1P1 (EDG-1); Table 2) | pEC50 (human S1P1 (EDG-1); Table 4) | T/C(%) (3 mg/kg) [3] | T/C(%) (10 mg/kg) [3] | T/C(%) (3 mg/kg) [4] | T/C(%) (10 mg/kg) [4] | also measured |
| --- | --- | --- | --- | --- | --- | --- | --- |
| CCCCCCCCc1ccc(CCC(N)(CO)CO)cc1.Cl [FTY720, 2-amino-2-[2-(4-octylphenyl)ethyl]-1,3-propanediol hydrochloride] |  |  |  |  |  |  | adverse side effect [1]: bradycardia is reported as an adverse side effect; reduction in blood lymphocytes (blood lymphocytes): induce reduction in blood lymphocytes; inhibitory action on production of cytokines such as IL-2 [2]: no inhibitory action |
| O=C(O)CCNCC(=O)N1CCc2cc(OCc3cc(-c4ccccc4)c(C(F)(F)F)s3)ccc21 [Example 29, 3-[N-[2-Oxo-2-[5-[(4-phenyl-5-trifluoromethyl-2-thienyl)methoxy]indolin-1-yl]ethyl]amino]propionic acid] | 8.62 |  | 15.5 | 13.9 |  |  |  |
| N[C@H](CC(=O)O)C(=O)N1CCc2cc(OCc3ccc(-c4ccccc4)c(C(F)(F)F)c3)ccc21 [Example 14, (R)-3-Amino-4-oxo-4-[5-[(2-trifluoromethyl-4-biphenyl)methoxy]indolin-1-yl]butyric acid] | 8.36 |  | 17.0 | 11.1 |  |  |  |
| N[C@H](CC(=O)O)C(=O)N1CCc2cc(OCc3cc(-c4ccccc4)c(C(F)(F)F)s3)ccc21 [Example 10, (R)-3-Amino-4-oxo-4-[5-[(4-phenyl-5-trifluoromethyl-2-thienyl)methoxy]indolin-1-yl]butyric acid] | 8.89 |  | 21.6 | 16.3 |  |  |  |

Further lines, with some results ahead:

| pEC50 (human S1P1 (EDG-1); Table 2) | pEC50 (human S1P1 (EDG-1); Table 4) | Structure (SMILES) | T/C(%) (3 mg/kg) [3] | T/C(%) (10 mg/kg) [3] | T/C(%) (3 mg/kg) [4] | T/C(%) (10 mg/kg) [4] | also measured |
| --- | --- | --- | --- | --- | --- | --- | --- |
|  | 8.35 | CN[C@H](CC(=O)O)C(=O)N1CCc2c1ccc(OCc1ccc(C3CCCC3)c(C(F)(F)F)c1)c2C [Example 129, 4-[5-[(4-Cyclopentyl-3-trifluoromethylphenyl)methoxy]-4-methylindolin-1-yl]-(3R)—(N-methylamino)-4-oxobutyric acid] |  |  | 18.2 | 17.7 |  |
|  | 8.21 | O=C(O)[C@@H]1CCCN(CC(=O)N2CCc3cc(OCc4cc(-c5ccccc5)c(C(F)(F)F)s4)ccc32)C1 [Example 119, 1-[2-Oxo-2-[5-[(4-phenyl-5-trifluoromethyl-2-thienyl)methoxy]indolin-1-yl]ethyl]piperidine-(3R)-carboxylic acid] |  |  | 28.7 | 20.7 |  |
| 8.54 |  | CN(CCC(=O)O)CC(=O)N1CCc2cc(OCc3cc(-c4ccccc4)c(C(F)(F)F)s3)ccc21 [Example 30, 3-[N-Methyl-N-[2-oxo-2-[5-[(4-phenyl-5-trifluoromethyl-2-thienyl)methoxy]indolin-1-yl]ethyl]amino]propionic acid] | 21.7 | 11.1 |  |  |  |
|  | 8.06 | CN[C@H](CC(=O)O)C(=O)N1CCc2cc(OCc3ccc(C4CCCCC4)cc3C(F)(F)F)ccc21 [Example 43, 4-[5-[[4-(Cyclohexyl)-2-(trifluoromethyl)phenyl]methoxy]indolin-1-yl]-(3R)-(methylamino)-4-oxobutyric acid] |  |  | 34.9 | 25.7 |  |
| 8.20 |  | O=C(O)CCNCC(=O)N1CCc2cc(OCc3ccc(-c4ccccc4)c(C(F)(F)F)c3)ccc21 [Example 31, 3-[N-[2-Oxo-2-[5-[(2-trifluoromethyl-4-biphenyl)methoxy]indolin-1-yl]ethyl]amino]propionic acid] | 30.8 | 19.8 |  |  |  |
|  | 8.33 | CC(C)c1ccc(COc2ccc3c(c2)CCN3C(=O)CNCCC(=O)O)cc1OC(F)(F)F [Example 97, 3-[N-[2-[5-(4-Isopropyl-3-trifluoromethoxybenzyloxy)indolin-1-yl]-2-oxoethyl]amino]propionic acid hydrochloride] |  |  | 22.2 | 17.9 |  |

Source: patent US20090324581A1, “HETEROARYLAMIDE LOWER CARBOXYLIC ACID DERIVATIVE” (Daiichi Sankyo company Limited, priority 2006, published 2009)
